Among the data in ChEMBL document CHEMBL1201862, “PubChem BioAssay data set” (2004) are EC50, IC50 and CC50 values, retold here.

Active and inactive are the calls of the source. Where only a bound is given, the exact number is not on record here.

In experiment [1] the test system is Streptococcus sp. 'group A'. Kind of experiment: growth inhibition of control SK(-) GAS strain, dose response, counter-screen for streptokinase expression inhibitor project, luminescence, kanamycin, BacTiterGlo, confirmation (AID 1900). It counts as functional, organism-based.
Experiment [2] concerns Streptococcus. Kind of experiment: Luminescence Microorganism-Based Dose Response Follow up to Identify Compounds Cytotoxic to Streptococcus. [Related pubchem assays: 1677 (Project Summary), 1915, 1914, 1902 (Retest at Dose), 1900 (Counter Screen), 1662 (Primary HTS)]. It counts as functional, organism-based.
In experiment [3] the target is T1, Streptokinase A (Streptococcus pyogenes serotype M1, UniProt P10520).
T1 sequence (P10520 whole entry): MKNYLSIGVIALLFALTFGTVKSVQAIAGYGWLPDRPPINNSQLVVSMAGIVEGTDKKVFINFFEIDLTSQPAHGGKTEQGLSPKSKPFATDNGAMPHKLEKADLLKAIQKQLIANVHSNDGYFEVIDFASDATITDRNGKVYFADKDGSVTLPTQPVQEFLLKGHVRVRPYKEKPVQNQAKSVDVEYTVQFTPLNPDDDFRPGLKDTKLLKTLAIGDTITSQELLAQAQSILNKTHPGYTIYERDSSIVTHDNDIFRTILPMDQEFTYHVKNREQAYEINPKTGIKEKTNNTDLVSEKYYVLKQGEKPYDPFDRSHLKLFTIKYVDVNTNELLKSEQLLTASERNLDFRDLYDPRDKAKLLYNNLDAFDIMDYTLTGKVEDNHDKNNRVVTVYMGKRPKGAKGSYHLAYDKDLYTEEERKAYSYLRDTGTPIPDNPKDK
Kind of experiment: S. pyogenes streptokinase expression inhibitors, potency, dose response, plasminogen activation absorbance, OD405 (AID 1914).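 Note: secreted streptokinase activity via plasminogen activation per viability signal from cell pellet.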 It counts as functional, Streptococcus pyogenes M1 GAS.

Experiment [4] concerns Streptococcus. As to the kind of experiment: Group A Streptococcus viability loss, dose response, counter-screen for streptokinase expression inhibitor project, luminescence, BacTiterGlo (AID 1915).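 Note: potency for reduction of bacterial viability or growth.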 It counts as functional, organism-based.
Experiment [5] in a line: polyadenylation inhibitors in yeast reporter, dose response, luminescence, S. cerevisiae SKY197-pL101 (AID 2525). It counts as functional, cell-based.
Experiment [6] in a line: Counterscreen for IDE inhibitors: Luminescence-based cell-based high throughput dose response assay to identify compounds that are cytotoxic to HEK cells. [Related pubchem assays: 434962 (Primary screen (IDE inhibitors in singlicate)), 449730 (Counterscreen (Cytotoxicity in triplicate)), 435028 (Confirmation (IDE inhibitors in triplicate)) …. It counts as functional. The following applies: HEK293.

The target in experiment [7] is Insulin-degrading enzyme (Homo sapiens, UniProt P14735). As to the kind of experiment: Dose Response: Fluorescence polarization-based cell-based high throughput dose response assay for inhibitors of insulin-degrading enzyme (IDE). [Related pubchem assays: 434962 (Primary screen (IDE inhibitors in singlicate)), 449730 (Counterscreen (Cytotoxicity in triplicate)), 435028 (Confirmation (IDE inhibitors in triplicate)), 434984 (Summary …. It is filed as functional.

A short description of experiment [8]: HeLa cell cytotoxicity, dose response, cytotoxicity control for MgcRacGAP inhibitor project (AID 624300). It is filed as functional.
Experiment [9] concerns the target T2, Rac GTPase-activating protein 1 (Homo sapiens, UniProt Q9H0H5).
T2 sequence (Q9H0H5 whole entry): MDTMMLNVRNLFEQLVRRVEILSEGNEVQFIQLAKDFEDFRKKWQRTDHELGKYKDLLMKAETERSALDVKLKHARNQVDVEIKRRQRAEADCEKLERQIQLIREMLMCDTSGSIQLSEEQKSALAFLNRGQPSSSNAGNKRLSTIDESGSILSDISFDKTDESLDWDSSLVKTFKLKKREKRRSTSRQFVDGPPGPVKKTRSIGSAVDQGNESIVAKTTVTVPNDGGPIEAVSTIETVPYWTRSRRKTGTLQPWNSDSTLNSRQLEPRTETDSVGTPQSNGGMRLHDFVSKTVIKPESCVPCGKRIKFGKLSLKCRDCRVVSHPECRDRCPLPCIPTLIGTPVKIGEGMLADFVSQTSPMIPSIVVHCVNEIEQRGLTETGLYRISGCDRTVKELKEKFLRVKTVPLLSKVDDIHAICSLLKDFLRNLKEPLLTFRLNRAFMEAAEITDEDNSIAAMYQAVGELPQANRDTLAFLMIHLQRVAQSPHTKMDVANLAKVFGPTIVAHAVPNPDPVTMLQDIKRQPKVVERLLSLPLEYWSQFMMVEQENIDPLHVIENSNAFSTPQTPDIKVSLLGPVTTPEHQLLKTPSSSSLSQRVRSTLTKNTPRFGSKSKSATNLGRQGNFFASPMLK
As to the kind of experiment: MgcRacGAP GTPase-activating activity inhibitors, confirmation, biochemical, ADP Hunter fluorescence, primary and confirmatory (AID 624330). It is filed as functional.

Sequence of Insulin-degrading enzyme (P14735 whole entry): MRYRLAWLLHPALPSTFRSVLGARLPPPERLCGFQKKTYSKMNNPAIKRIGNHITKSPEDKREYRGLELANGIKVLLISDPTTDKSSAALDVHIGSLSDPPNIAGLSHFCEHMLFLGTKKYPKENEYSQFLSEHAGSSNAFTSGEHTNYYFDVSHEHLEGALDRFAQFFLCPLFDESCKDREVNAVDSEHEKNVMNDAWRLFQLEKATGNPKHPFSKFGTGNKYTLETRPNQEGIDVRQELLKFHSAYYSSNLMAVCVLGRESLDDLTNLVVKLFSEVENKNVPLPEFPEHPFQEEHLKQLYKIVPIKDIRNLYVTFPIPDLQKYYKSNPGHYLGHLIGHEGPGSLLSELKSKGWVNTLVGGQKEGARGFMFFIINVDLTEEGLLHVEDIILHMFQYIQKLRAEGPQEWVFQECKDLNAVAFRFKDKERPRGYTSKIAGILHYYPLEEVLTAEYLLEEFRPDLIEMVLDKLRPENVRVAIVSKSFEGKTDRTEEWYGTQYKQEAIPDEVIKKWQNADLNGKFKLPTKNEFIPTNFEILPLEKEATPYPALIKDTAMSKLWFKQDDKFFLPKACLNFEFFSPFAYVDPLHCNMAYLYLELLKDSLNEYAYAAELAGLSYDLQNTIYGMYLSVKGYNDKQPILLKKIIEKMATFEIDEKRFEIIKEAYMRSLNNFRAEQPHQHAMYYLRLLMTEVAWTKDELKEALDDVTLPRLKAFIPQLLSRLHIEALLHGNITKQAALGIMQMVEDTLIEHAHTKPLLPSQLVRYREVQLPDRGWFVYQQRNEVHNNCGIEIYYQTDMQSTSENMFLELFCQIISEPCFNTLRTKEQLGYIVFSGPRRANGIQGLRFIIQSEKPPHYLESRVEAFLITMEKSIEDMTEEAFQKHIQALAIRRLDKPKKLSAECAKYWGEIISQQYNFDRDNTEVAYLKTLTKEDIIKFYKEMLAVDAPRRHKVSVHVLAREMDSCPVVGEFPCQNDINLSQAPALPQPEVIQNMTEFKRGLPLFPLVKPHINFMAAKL

`Cc1ccc(C(=O)n2c3ccccc3c3ccccc32)cc1`: the EC50 in experiment [1] was 21.6 µM (active); in experiment [2], > 500 µM (not active); in [3], 6.45 µM (active); in experiment [4] it was > 150 µM (not active).

For the molecule `Cc1ccc2[nH]c(/C(C#N)=C/c3ccc([N+](=O)[O-])o3)nc2c1`, the EC50 in experiment [5] is 4.03 µM (active).

Turning to `Cc1cc(/C=C2\SC(=S)NC2=O)cc(C)c1O`, the figures for the IC50 in experiment [6], in [7] and in [9] were > 55.7 µM (not active), > 56 µM (not active) and 25.8 µM (active), respectively. The CC50 in [8] was 100 µM (active).
